# Laboratory results taken from ChEMBL document CHEMBL3885881, “DrugMatrix”.
# Species: Rattus norvegicus
# Assay: DrugMatrix - Regimen: Daily Repeat
# Format: toxicity, organism-based, Sprague-Dawley
# Design: regimen Daily Repeat, gender Male, age 6-8 weeks
# Details: in vivo, po, route oral GAVAGE, […]; for ABSOLUTE BASOPHIL / ABSOLUTE EOSINOPHIL / ABSOLUTE LYMPHOCYTE / ABSOLUTE MONOCYTE / ABSOLUTE SEGMENTED NEUTROPHIL / BASOPHIL / EOSINOPHIL / ERYTHROCYTE COUNT / HEMATOCRIT / HEMOGLOBIN / LEUKOCYTE COUNT / LYMPHOCYTE / MEAN CORPUSCULAR HEMOGLOBIN / MEAN CORPUSCULAR HEMOGLOBIN CONCENTRATION / MEAN CORPUSCULAR VOLUME / MONOCYTE / NEUTROPHIL / NUCLEATED RED BLOOD CELLS / PLATELET COUNT: tissue Blood; for ALANINE AMINOTRANSFERASE / ALBUMIN / ALKALINE PHOSPHATASE / ASPARTATE AMINOTRANSFERASE / BLOOD UREA NITROGEN / CARBON DIOXIDE / CHLORIDE / CHOLESTEROL / CREATINE PHOSPHOKINASE / CREATININE / GLUCOSE / LACTATE DEHYDROGENASE / LIPASE / PHOSPHORUS / POTASSIUM / SODIUM / TOTAL BILIRUBIN / TOTAL PROTEIN / URIC ACID: tissue Plasma
# [1] = 0 mg/kg, 72 h, dose level Control, time 3 day
# [2] = 0 mg/kg, 120 h, dose level Control, time 5 day
# [3] = 25 mg/kg, 72 h, dose level Low, time 3 day
compound,measurement,setting,value
CC(C)(C)NC(=O)[C@H]1CC[C@H]2[C@@H]3CC[C@H]4NC(=O)C=C[C@]4(C)[C@H]3CC[C@]12C [FINASTERIDE],ABSOLUTE BASOPHIL,[1],0 CELLS/uL
same,ABSOLUTE EOSINOPHIL,[1],52.33 CELLS/uL
same,ABSOLUTE LYMPHOCYTE,[1],9105.33 CELLS/uL
same,ABSOLUTE MONOCYTE,[1],155.67 CELLS/uL
same,ABSOLUTE SEGMENTED NEUTROPHIL,[1],1020 CELLS/uL
same,BASOPHIL,[1],0%
same,EOSINOPHIL,[1],0.33%
same,ERYTHROCYTE COUNT,[1],5.03 x10E6/uL
same,HEMATOCRIT,[1],31.63%
same,HEMOGLOBIN,[1],12.37 G/DL
same,LEUKOCYTE COUNT,[1],10.33 x10E3/uL
same,LYMPHOCYTE,[1],87%
same,MEAN CORPUSCULAR HEMOGLOBIN,[1],24.57 pg
same,MEAN CORPUSCULAR HEMOGLOBIN CONCENTRATION,[1],39.07 G/DL
same,MEAN CORPUSCULAR VOLUME,[1],62.93 fL
same,MONOCYTE,[1],1.33%
same,NEUTROPHIL,[1],11.33%
same,NUCLEATED RED BLOOD CELLS,[1],0 /100WBC
same,PLATELET COUNT,[1],896 x10E3/uL
same,ALANINE AMINOTRANSFERASE,[1],75.33 u/L
same,ALBUMIN,[1],3.77 G/DL
same,ALKALINE PHOSPHATASE,[1],378.67 u/L
same,ASPARTATE AMINOTRANSFERASE,[1],101.33 u/L
same,BLOOD UREA NITROGEN,[1],11.33 mg/dL
same,CARBON DIOXIDE,[1],25 mmol/L
same,CHLORIDE,[1],99 MEQ/L
same,CHOLESTEROL,[1],66 mg/dL
same,CREATINE PHOSPHOKINASE,[1],277 u/L
same,CREATININE,[1],0.33 mg/dL
same,GLUCOSE,[1],198.33 mg/dL
same,LACTATE DEHYDROGENASE,[1],140.33 u/L
same,LIPASE,[1],11.33 u/L
same,PHOSPHORUS,[1],11.83 mg/dL
same,POTASSIUM,[1],5.37 MEQ/L
same,SODIUM,[1],141.03 MEQ/L
same,TOTAL BILIRUBIN,[1],0.2 mg/dL
same,TOTAL PROTEIN,[1],5.47 G/DL
same,URIC ACID,[1],0.93 mg/dL
same,ABSOLUTE BASOPHIL,[2],0 CELLS/uL
same,ABSOLUTE EOSINOPHIL,[2],0 CELLS/uL
same,ABSOLUTE LYMPHOCYTE,[2],8734 CELLS/uL
same,ABSOLUTE MONOCYTE,[2],98.67 CELLS/uL
same,ABSOLUTE SEGMENTED NEUTROPHIL,[2],1034 CELLS/uL
same,BASOPHIL,[2],0%
same,EOSINOPHIL,[2],0%
same,ERYTHROCYTE COUNT,[2],5.19 x10E6/uL
same,HEMATOCRIT,[2],33.2%
same,HEMOGLOBIN,[2],12.93 G/DL
same,LEUKOCYTE COUNT,[2],9.87 x10E3/uL
same,LYMPHOCYTE,[2],87%
same,MEAN CORPUSCULAR HEMOGLOBIN,[2],25 pg
same,MEAN CORPUSCULAR HEMOGLOBIN CONCENTRATION,[2],39.03 G/DL
same,MEAN CORPUSCULAR VOLUME,[2],63.93 fL
same,MONOCYTE,[2],1%
same,NEUTROPHIL,[2],12%
same,NUCLEATED RED BLOOD CELLS,[2],0 /100WBC
same,PLATELET COUNT,[2],1190 x10E3/uL
same,ALANINE AMINOTRANSFERASE,[2],75.67 u/L
same,ALBUMIN,[2],4 G/DL
same,ALKALINE PHOSPHATASE,[2],384.33 u/L
same,ASPARTATE AMINOTRANSFERASE,[2],89.67 u/L
same,BLOOD UREA NITROGEN,[2],13 mg/dL
same,CARBON DIOXIDE,[2],32.67 mmol/L
same,CHLORIDE,[2],103 MEQ/L
same,CHOLESTEROL,[2],79.67 mg/dL
same,CREATINE PHOSPHOKINASE,[2],199.33 u/L
same,CREATININE,[2],0.29 mg/dL
same,GLUCOSE,[2],161.33 mg/dL
same,LACTATE DEHYDROGENASE,[2],92.33 u/L
same,LIPASE,[2],11.67 u/L
same,PHOSPHORUS,[2],10.8 mg/dL
same,POTASSIUM,[2],5.38 MEQ/L
same,SODIUM,[2],145.3 MEQ/L
same,TOTAL BILIRUBIN,[2],0.17 mg/dL
same,TOTAL PROTEIN,[2],5.7 G/DL
same,URIC ACID,[2],0.63 mg/dL
same,ABSOLUTE BASOPHIL,[3],0 CELLS/uL
same,ABSOLUTE EOSINOPHIL,[3],0 CELLS/uL
same,ABSOLUTE LYMPHOCYTE,[3],6334 CELLS/uL
same,ABSOLUTE MONOCYTE,[3],74.67 CELLS/uL
same,ABSOLUTE SEGMENTED NEUTROPHIL,[3],624.67 CELLS/uL
same,BASOPHIL,[3],0%
same,EOSINOPHIL,[3],0%
same,ERYTHROCYTE COUNT,[3],5.31 x10E6/uL
same,HEMATOCRIT,[3],33.17%
same,HEMOGLOBIN,[3],12.87 G/DL
same,LEUKOCYTE COUNT,[3],7.03 x10E3/uL
same,LYMPHOCYTE,[3],89.67%
same,MEAN CORPUSCULAR HEMOGLOBIN,[3],24.23 pg
same,MEAN CORPUSCULAR HEMOGLOBIN CONCENTRATION,[3],38.8 G/DL
same,MEAN CORPUSCULAR VOLUME,[3],62.43 fL
same,MONOCYTE,[3],1%
same,NEUTROPHIL,[3],9.33%
same,NUCLEATED RED BLOOD CELLS,[3],0 /100WBC
same,PLATELET COUNT,[3],1308 x10E3/uL
same,ALANINE AMINOTRANSFERASE,[3],57.33 u/L
same,ALBUMIN,[3],3.9 G/DL
same,ALKALINE PHOSPHATASE,[3],360 u/L
same,ASPARTATE AMINOTRANSFERASE,[3],80.67 u/L
same,BLOOD UREA NITROGEN,[3],11 mg/dL
same,CARBON DIOXIDE,[3],26.33 mmol/L
same,CHLORIDE,[3],101.33 MEQ/L
same,CHOLESTEROL,[3],77 mg/dL
same,CREATINE PHOSPHOKINASE,[3],434.67 u/L
same,CREATININE,[3],0.12 mg/dL
same,GLUCOSE,[3],184.33 mg/dL
same,LACTATE DEHYDROGENASE,[3],112 u/L
same,LIPASE,[3],10.67 u/L
same,PHOSPHORUS,[3],12.1 mg/dL
same,POTASSIUM,[3],4.86 MEQ/L
same,SODIUM,[3],144.9 MEQ/L
same,TOTAL BILIRUBIN,[3],0.2 mg/dL
same,TOTAL PROTEIN,[3],5.83 G/DL
same,URIC ACID,[3],0.87 mg/dL
